Laboratory results: patent US11578130B2, “Regulatable chimeric antigen receptor” (Novartis AG, priority 2013, dated 2023)

What was measured:
[1] = system: H1N1 A/California/07/2009; assay: Clinical trial: hemagglutination inhibition titers and seroconversion, vaccine strain A/H1N1; assay type: in vivo, human
Protocol: (§1) The trial was observer-blind because the placebo in the RAD001 0.5 mg daily and 20 mg weekly cohorts differed slightly from the RAD001 tablets in those cohorts. […] The treatment duration for all cohorts was 6 weeks during which time subjects underwent safety evaluations in the clinic every 2 weeks. After subjects had been dosed for 4 weeks, RAD001 steady state levels were measured pre-dose and at one hour post dose. After completing the 6 week course of study drug, subjects were given a 2 week drug free break to reverse any possible RAD001-induced immunosuppression, and then were given a 2012 seasonal influenza vaccination (Agrippal®, Novartis Vaccines and Diagnostics, Siena, Italy) containing the strains H1N1 A/California/07/2009, H3N2 A/Victoria/210/2009, B/Brisbane/60/2008. Four weeks after influenza vaccination, subjects had serum collected for influenza titer measurements. Antibody titers to the 3 influenza vaccine strains as well as to 2 heterologous strains (A/H1N1 strain A/New Jersey/8/76 and A/H3N2 strain A/Victoria/361/11) were measured by standard hemagglutination inhibition assay (Kendal, A P et al. (1982) Concepts and procedures for laboratory-based influenza surveillance. Atlanta: Centers for Disease Control and Prevention B17-B35).
(§2) The ability of RAD001 to improve immune function in elderly volunteers was evaluated by measuring the serologic response to the 2012 seasonal influenza vaccine. The hemagglutination inhibition (HI) geometric mean titers (GMT) to each of the 3 influenza vaccine strains at baseline and 4 weeks after influenza vaccination are provided in Table 22. The primary analysis variable was the HI GMT ratio (4 weeks post vaccination/baseline). […] This endpoint was chosen because a 1.2-fold increase in the influenza GMT ratio induced by the MF-59 vaccine adjuvant was associated with a decrease in influenza illness (Iob, A et al. (2005) Epidemiol Infect 133:687-693).
(§3) Rates of seroconversion 4 weeks after influenza vaccination were also evaluated. Seroconversion was defined as the change from a negative pre-vaccination titer (i.e., HI titer <1:10) to post-vaccination HI titer ≥1:40 or at least 4-fold increase from a non-negative (≥1:10) pre-vaccination HI titer.

H3N2 A/Victoria/210/2009 = assay: Clinical trial: hemagglutination inhibition titers and seroconversion, vaccine strain A/H3N2; assay type: in vivo, human
Protocol: as §1, §2, §3

[2] = Baseline (2 weeks prior to influenza vaccination), RAD001 0.5 mg daily, N = 50
[3] = Baseline (2 weeks prior to influenza vaccination), RAD001 5 mg weekly, N = 49
[4] = Baseline (2 weeks prior to influenza vaccination), RAD001 20 mg weekly, N = 49
[5] = Intention to Treat Population, 0.5 mg, N = 48
[6] = Intention to Treat Population, 5 mg, N = 49
[7] = Intention to Treat Population, 20 mg, N = 48
[8] = Subjects with Baseline Titers <=40, 0.5 mg
[9] = Subjects with Baseline Titers <=40, 5 mg
[10] = Subjects with Baseline Titers <=40, 20 mg
[11] = Week 4 after influenza vaccination, RAD001 0.5 mg daily, N = 50
[12] = Week 4 after influenza vaccination, RAD001 5 mg weekly, N = 49
[13] = Week 4 after influenza vaccination, RAD001 20 mg weekly, N = 49

Q: Which “HI GMT, A/H1N1” value [1, 2] does the source give for `CO[C@H]1C[C@@H]2CC[C@@H](C)[C@@](O)(O2)C(=O)C(=O)N2CCCC[C@H]2C(=O)O[C@H]([C@H](C)C[C@@H]2CC[C@@H](OCCO)[C@H](OC)C2)CC(=O)[C@H](C)/C=C(\C)[C@@H](O)[C@@H](OC)C(=O)[C@H](C)C[C@H](C)/C=C/C=C/C=C/1C` [RAD001, (1R,9S,12S,15R,16E,18R,19R,21R,23S,24E,26E,28E,30S,32S,35R)-1,18-dihydroxy-12-{(1R)-2-[(1S,3R,4R)-4-(2-hydroxyethoxy)-3-methoxycyclohexyl]-1-methylethyl}-19,30-dimethoxy-15,17,21,23,29,35-hexamethyl-11,36-dioxa-4-aza-tricyclo[30.3.1.04,9]hexatriaconta-16,24,26,28-tetraene-2,3,10,14,20-pentaone] here?
A: The value was 102.8.

Q: And the “HI GMT, A/H1N1” value [1, 3]?
A: The value was 84.2.

Q: And the “HI GMT, A/H1N1” value [1, 4]?
A: Its value is 90.1.

Q: What about the “Percent of subjects with seroconversion to influenza 4 weeks after vaccination, H1N1” value (“Percent of subjects with seroconversion … H1N1” below) [1, 5] of the same compound?
A: The value was 27%.

Q: What about the “Percent of subjects with seroconversion … H1N1” value [1, 6] of the same compound?
A: The value was 27%.

Q: And the “Percent of subjects with seroconversion … H1N1” value [1, 7]?
A: Its value is 17%.

Q: What about the “GMT ratio (week 4 post vaccination/baseline), A/H1N1” value ([1]; RAD001 0.5 mg daily, N = 50) of the same compound?
A: The value was 2.6.

Q: What about the “GMT ratio (week 4 post vaccination/baseline), A/H1N1” value ([1]; RAD001 5 mg weekly, N = 49) of the same compound?
A: The value was 2.5.

Q: And the “GMT ratio (week 4 post vaccination/baseline), A/H1N1” value ([1]; RAD001 20 mg weekly, N = 49)?
A: The value was 1.8.

Q: What about the “Percent of subjects with seroconversion … H1N1” value [1, 8] of the same compound?
A: Its value is 42%.

Q: And the “Percent of subjects with seroconversion … H1N1” value [1, 9]?
A: The value was 45%.

Q: And the “Percent of subjects with seroconversion … H1N1” value [1, 10]?
A: Its value is 36%.

Q: And the “HI GMT, A/H1N1” value [1, 11]?
A: The value was 190.2.

Q: What about the “HI GMT, A/H1N1” value [1, 12] of the same compound?
A: Its value is 198.73.

Q: And the “HI GMT, A/H1N1” value [1, 13]?
A: Its value is 129.7.

Q: And the “HI GMT, A/H3N2” value (H3N2 A/Victoria/210/2009; [2])?
A: Its value is 106.8.

Q: And the “HI GMT, A/H3N2” value (H3N2 A/Victoria/210/2009; [3])?
A: Its value is 126.04.

Q: And the “HI GMT, A/H3N2” value (H3N2 A/Victoria/210/2009; [4])?
A: The value was 137.1.

Q: And the “Percent of subjects with seroconversion to influenza 4 weeks after vaccination, H3N2” value (“Percent of subjects with seroconversion … H3N2” for short) (H3N2 A/Victoria/210/2009; [5])?
A: Its value is 27%.

Q: And the “Percent of subjects with seroconversion … H3N2” value (H3N2 A/Victoria/210/2009; [6])?
A: Its value is 24%.

Q: And the “Percent of subjects with seroconversion … H3N2” value (H3N2 A/Victoria/210/2009; [7])?
A: Its value is 25%.

Q: And the “GMT ratio (week 4 post vaccination/baseline), A/H3N2” value (H3N2 A/Victoria/210/2009; RAD001 0.5 mg daily, N = 50)?
A: Its value is 2.1.

Q: What about the “GMT ratio (week 4 post vaccination/baseline), A/H3N2” value (H3N2 A/Victoria/210/2009; RAD001 5 mg weekly, N = 49) of the same compound?
A: Its value is 2.0.

Q: What about the “GMT ratio (week 4 post vaccination/baseline), A/H3N2” value (H3N2 A/Victoria/210/2009; RAD001 20 mg weekly, N = 49) of the same compound?
A: Its value is 2.1.

Q: What about the “Percent of subjects with seroconversion … H3N2” value (H3N2 A/Victoria/210/2009; [8]) of the same compound?
A: The value was 64%.

Q: And the “Percent of subjects with seroconversion … H3N2” value (H3N2 A/Victoria/210/2009; [9])?
A: Its value is 53%.

Q: What about the “Percent of subjects with seroconversion … H3N2” value (H3N2 A/Victoria/210/2009; [10]) of the same compound?
A: The value was 71%.

Q: What about the “HI GMT, A/H3N2” value (H3N2 A/Victoria/210/2009; [11]) of the same compound?
A: The value was 194.4.

Q: What about the “HI GMT, A/H3N2” value (H3N2 A/Victoria/210/2009; [12]) of the same compound?
A: Its value is 223.0.

Q: What about the “HI GMT, A/H3N2” value (H3N2 A/Victoria/210/2009; [13]) of the same compound?
A: The value was 223.0.
